Measurements published in patent publication US20260337187A1, “COMPOUNDS FOR TREATMENT OF INFLAMMATORY PROCESSES” (THORNE LIMITED, priority 2022, published 2026).
Like-named read-outs stand apart in the source and are kept apart here.

Columns and labels:
[1] = system: Primary human pulmonary microvascular endothelial cells (HPMEC); assay: Pulmonary endothelial cell cytokine release (TNFα triggered, cytokine array); format: cell-based; settings: for inhibition at 50 µM: Homo sapiens, Endothelial cell, 50 μM B2, activated by TNF
Description: Endothelial cell cytokine release: Primary human pulmonary microvascular endothelial cells (HPMEC) were purchased from Promocell and maintained in endothelial cell media from Promocell as per the company's protocol. To measure the release of inflammatory mediators HPMEC were cultured to confluence in a 12 well plate in 1 ml of endothelial cell media. Cells were then stimulated with TNFα at 100 ng/ml overnight in the presence or absence of B2 or control DMSO. The supernatant was then collected and inflammatory mediator levels were measured in it using the Cytokine XXL array from R&D systems according to manufacturer's instructions as described above.
Human primary pulmonary endothelial cells were triggered to produce cytokines by the pro-inflammatory cytokine TNFα. The levels of 105 cytokines in the cell culture supernatant were measured by the R&D Systems Human XL cytokine array and a fluorescence-based photometric read-out. The table lists cytokines whose production was reduced by >50% (left) or 20 to 50% upon treatment with 50 μM B2 (right).

[2] = system: human primary neutrophils; assay: Neutrophil NETosis (PMA or pyocyanin triggered, extracellular DNA, Sytox Green); format: cell-based; settings: 3 hours (FIG. 3)
Description: The effect of 3 different concentrations (from left to right for each treatment: 100, 50 and 20 μM) of B2 is shown as % reduction compared to untreated control; average of 3 experiments.
Neutrophil NETosis: Neutrophil production of extracellular traps, NETosis, was measured on human primary neutrophils, isolated from fresh blood samples as described above or by Pancoll gradient centrifugation. Neutrophils in RPMI at 4×10^6 cells/ml were triggered to undergo NETosis in wells of a 96-well plate at a total cell number of 2×10^5 cells per well. The cells were treated for 3 hours with either the […] phorbol myristate acetate (100 nM PMA) or the bacterial product pyocyanin (at 10 μM). Extracellular DNA was measured by fluorometry using the dye Sytox™ Green and/or by fluorescence microscopy.
To investigate the effect of B2 on neutrophil NETosis, human primary neutrophils, isolated from fresh blood samples, were triggered to undergo NETosis (the expulsion of DNA in the environment) by treatment for 3 hours with either the […] phorbol myristate acetate (PMA) or the bacterial product pyocyanin. Extracellular DNA was measured by photometry using the dye Sytox™ Green.

[3] = system: primary human B lymphocytes; assay: B lymphocyte cytokine release (cytokine array); format: cell-based; settings: CD40L and IL4; FIG. 9
Description: The % reduction compared to the stimulated control is shown; average of 2 experiments.
B lymphocyte cytokine release: Primary human B lymphocytes isolated from fresh buffy coat were stimulated at a cell density of 5×10^5/ml in 1 ml by CD40L and IL4 for 5 days in a 24-well plate, and the levels of 105 cytokines in the cell culture supernatant were measured by the R&D Systems Human XL cytokine antibody array as per manufacturer's instructions. The signals were measured by a fluorescence-based photometric read-out in the Li—COR Odyssey Fluorescent imaging system, and the spots quantified by Fiji software.
To investigate the modulation of B lymphocyte cytokine release by B2, primary human B lymphocytes isolated from fresh buffy coat were stimulated by CD40L and IL4 for […] and the levels of 105 cytokines in the cell culture supernatant were measured by the R&D Systems Human XL cytokine array and a fluorescence-based photometric read-out.

SWAP-70 = assay: FACS-FRET of SWAP-70 dimerization in living cells; format: cell-based
Description: B2 was added to the cells 15 minutes prior to stimulation.
(§1) FACS-FRET of SWAP-70 in living cells: The method was in line with that previously described by Betaneli and Jessberger (2020). Briefly, two versions of SWAP-70, differently tagged with the fluorescent dyes Cerulean and Venus, were stably expressed in 293T cells. Upon activation of the cells, e.g., by sodium vanadate, SWAP-70 dimerizes. Thereby the two fluorophores associate and generate a fluorescence resonance energy transfer (FRET) signal, which is measured by FACS. FACS-FRET allows to analyze large numbers of cells simultaneously.
as §1, with “Two” for “FACS-FRET of SWAP-70 in living cells: The method was in line with that previously described by Betaneli and Jessberger (2020). Briefly, two”, “simultaneously. […] B2 was added to the cells 15 minutes prior to stimulation.” for “simultaneously.”

[4] = system: primary peripheral blood monocytes; assay: Macrophage/monocyte migration to CCL2 (Boyden chamber/Transwell); format: cell-based, human; settings: 50 μM B2, towards CCL2 (FIG. 10)
Description: Dark grey: dimethylsulfoxide (DMSO) only; light grey: 50 μM B2. An exemplary experiment out of four is shown.
Macrophage/monocyte migration: Monocytes/macrophages were purified from buffy coats, first by density gradient centrifugation on ficoll to isolate total PBMC, and then by negative selection using the monocyte purification kit from Miltenyi Inc. as per manufacturer's instructions. Monocytes were then resuspended in tissue culture media at a concentration of 5×10^6 per ml. Monocyte migration to CCL2 was then measured using a Boyden chamber assay fitted with a membrane with […] pores. This was performed as follows: 200 μl of cells were pipetted into the upper chamber in the presence or absence of B2 or DMSO control. In the lower chamber 1 ml of the chemokine solution at concentrations of 10 ng/mL and 100 ng/mL, together with the same amount of B2 or DMSO as in the upper chamber was added. Cells were then left to migrate for 6 hours and the number of cells migrating into the lower chamber was ascertained by standard cell counting.
To investigate the inhibition of macrophage/monocyte migration by B2, primary peripheral blood monocytes were isolated from buffy coat and subsequent negative selection. […] Migrated cells were quantified after 5 hours in the presence of carrier (DMSO) only or 50 μM B2 in DMSO (FIG. 10).

Compound `Cc1onc(-c2ccccc2Cl)c1C(=O)Nc1nc2ccc([N+](=O)[O-])cc2s1` [B2, 3-(2-chlorophenyl)-5-methyl-N-(6-nitrobenzo[d]thiazol-2-yl)isoxazole-4-carboxamide] has an inhibition at 50 µM ([1]; *Poor dose response, only minor increase with TNF, read-out: FGF19 production, reduction) of 20 to 50%, an inhibition at 50 µM ([1]; read-out: CCL2/MCP-1 production, reduction) of 20 to 50% and an inhibition at 50 µM ([1]; read-out: CCL5/RANTES production, reduction) greater than 50%. It also gave an inhibition at 50 µM ([1]; read-out: CCL20/MIP-3 alpha production, reduction) of 20 to 50%, an inhibition at 50 µM ([1]; read-out: CXCL1/GRO-alpha production, reduction) greater than 50% and an inhibition at 50 µM ([1]; read-out: CXCL5/ENA-78 production, reduction) greater than 50%. The inhibition at 50 µM ([1]; read-out: CXCL10/IP10 production, reduction) was 20 to 50%, the inhibition at 50 µM ([1]; read-out: GMCSF production, reduction) was greater than 50% and the inhibition at 50 µM ([1]; read-out: HGF production, reduction) was greater than 50%. It also gave an inhibition at 50 µM ([1]; read-out: ICAM-1 production, reduction) greater than 50%, an inhibition at 50 µM ([1]; read-out: Pentraxin-3 production, reduction) of 20 to 50% and an inhibition at 50 µM ([1]; read-out: TFF3 production, reduction) greater than 50%. For the same compound, the inhibition at 50 µM ([1]; read-out: VCAM-1 production, reduction) was greater than 50%, the “human pulmonary endothelial cell cytokine release profile” value ([1]; TNFα, Table 1) was “reducing specific pro-inflammatory cytokines” and the “secretion of several chemokines by endothelial cells” value ([1]; TNFα, Table 1) was “substantially reduced”. For the same compound, the “secretion of several soluble adhesion molecules by endothelial cells” value ([1]; TNFα, Table 1) was “reduced”, the “FGF19 production, dose response” value ([1]; activated by TNF, footnote * to FGF19) was “*Poor dose response, only minor increase with TNF” and the “neutrophil NETosis” value [2] was “substantially reduced”. The “B cell cytokine release profile” value [3] was “reducing specific pro-inflammatory cytokines”, the “FACS-FRET signal, SWAP-70 dimerization at earlier time intervals” value (SWAP-70; 50 μM B2, 5-10 and 10-15 minutes after stimulation, B2 added 15 minutes prior) was “inhibition by 50 μM B2 at earlier time intervals” and the “FACS-FRET signal (FRET efficiency), SWAP-70 dimerization” value (SWAP-70; 50, 25 and 10 μM B2, 20 minutes after stimulation, B2 added 15 minutes prior) was “inhibition of the FACS-FRET signal”. For the same compound, the “SWAP-70 dimerization in living cells” value (SWAP-70; 293T cells, sodium vanadate activation) was “inhibits SWAP-70 dimerization in living cells” and the macrophage migration [4] was “reduces macrophage migration”.
